Experiments:
vanilloid receptor (VR1) = biological target: T1, vanilloid receptor (VR1) (Homo sapiens, UniProt Q8NER1); experiment: Functional testing on vanilloid receptor (VR1): FLIPR Ca2+ inflow assay in CHO K1 cells stably transfected with the VR1 gene; type: cell-based; details: for inhibition at 10 µM: CHO-K1, inhibition compared to 10 μM CP (capsaicin); for activation at 10 µM: CHO-K1, stimulation compared to 10 μM CP (capsaicin)
T1 construct: expressed in transfected cells; host or cells: CHO K1 cells (ECACC), stably transfected
Excerpt: II. Functional Testing Carried Out on the Vanilloid Receptor (VR1)
The agonistic or antagonistic effect of the substances to be tested can also be determined on the vanilloid receptor (VR1) using the following assay. According to this assay, the Ca^2+ inflow is quantified through the channel using a Ca^2+-sensitive dye (type Fluo-4, Molecular Probes Europe BV, Leiden, Netherlands) in a fluorescent imaging plate reader (FLIPR, Molecular Devices, Sunnyvale, USA).
Chinese hamster ovary cells (CHO K1 cells, European Collection of Cell Cultures (ECACC) United Kingdom) were stably transfected with the VR1 gene. For functional testing, these cells were plated out on poly-D-lysine-coated black 96 well plates having a clear base (BD Biosciences, Heidelberg, Germany) at a density of 25,000 cells/well. The cells were incubated overnight at 37° C. and 5% CO2 in a culture medium (Ham's F12 nutrient mixture, 10% by volume of FCS (foetal calf serum), 18 μg/ml L-proline). The next day the cells were incubated with Fluo-4 (Fluo-4 2 μM, 0.01% by volume of Pluronic F127, Molecular Probes in HBSS (Hank's buffered saline solution), Gibco Invitrogen GmbH, Karlsruhe, Germany) for 30 minutes at 37° C. Subsequently, the plates were washed 3 times with HBSS buffer and after further incubation for 15 minutes at room temperature used for Ca^2+ measurement in a FLIPR assay. The Ca^2+-dependent fluorescence was measured before and after the addition of the substances to be tested (λex wavelength=488 nm, λem=540 nm). Quantification was carried out by measuring the highest fluorescence intensity (FC, Fluorescence Counts) over time.
The FLIPR protocol consists of 2 substance additions. First the compounds to be tested (10 μM) were pipetted onto the cells and the Ca^2+ inflow was compared with the control (capsaicin 10 μM) (% activation based on the Ca^2+ signal after the addition of 10 μM capsaicin). After 5 minutes' incubation, 100 nM of capsaicin were administered and the Ca^2+ inflow was also determined.
Desensitising agonists and antagonists led to suppression of the Ca^2+ inflow. The % inhibition was calculated compared to the maximum achievable inhibition with 10 μM of capsaicin.

[1] = biological target: T2, rat-species vanilloid receptor 1 (VR1/TRPV1) (Rattus norvegicus, UniProt O35433); experiment: Functional testing on vanilloid receptor 1 (VR1/TRPV1): FLIPR Ca2+ inflow assay in rat dorsal root ganglia cells (% activation / % inhibition vs capsaicin); type: cell-based; details: for inhibition at 10 µM: inhibition compared to 10 μM CP (capsaicin); for activation at 10 µM: stimulation compared to 10 μM CP (capsaicin)
T2 construct: endogenous in cells; host or cells: primary cells dissociated from rat dorsal root ganglia (DRG)
Method: Preference may also be given to substituted spiro compounds according to the invention of general formula I which in a FLIPR assay in a concentration of 10 μM display inhibition of the Ca^2+ ion inflow in dorsal root ganglia of rats of at least 30%, preferably of at least 40%, particularly preferably of at least 50%, most particularly preferably of at least 70%, even more preferably of at least 90%, compared to the maximum achievable inhibition of the Ca^2+ ion inflow with capsaicin in a concentration of 10 μM.
In the FLIPR assay, the Ca^2+ inflow is quantified using a Ca^2+-sensitive dye (type Fluo-4, Molecular Probes Europe BV, Leiden, Netherlands) in a fluorescent imaging plate reader (FLIPR, Molecular Devices, Sunnyvale, USA), as described hereinafter.
I. Functional Testing Carried Out on the Vanilloid Receptor 1 (VR1/TRPV1 Receptor)
The agonistic or antagonistic effect of the substances to be tested can be determined on the rat-species vanilloid receptor 1 (VR1/TRPV1) using the following assay. According to this assay, the Ca^2+ inflow is quantified through the receptor channel using a Ca^2+-sensitive dye (type Fluo-4, Molecular Probes Europe BV, Leiden, Netherlands) in a fluorescent imaging plate reader (FLIPR, Molecular Devices, Sunnyvale, USA).
Complete medium: 50 mL HAMS F12 nutrient mixture (Gibco Invitrogen GmbH, Karlsruhe, Germany) with
10% by volume of FCS (foetal calf serum, Gibco Invitrogen GmbH, Karlsruhe, Germany, […]);
2 mM L-glutamine (Sigma, Munich, Germany);
1% by weight of AA solution (antibiotic/antimyotic solution, PAA, Pasching, Austria)
and 25 ng/ml NGF medium (2.5 S, Gibco Invitrogen GmbH, Karlsruhe, Germany)
Cell culture plate: Poly-D-lysine-coated, black 96 well plates having a clear base (96 well black/clear plate, BD Biosciences, Heidelberg, Germany) were additionally coated with laminin (Gibco Invitrogen GmbH, Karlsruhe, Germany), the laminin being diluted with PBS (Ca—Mg-free PBS, Gibco Invitrogen GmbH, Karlsruhe, Germany) to a concentration of 100 μg/mL. Aliquots having a laminin concentration of 100 μg/mL were removed and stored at −20° C. The aliquots were diluted with PBS in a ratio of 1:10 to 10 μg/mL laminin and in each case 50 μL of the solution were pipetted into a recess in the cell culture plate. The cell culture plates were incubated for at least two hours at 37° C., the excess solution was removed by suction-filtration and the recesses were each washed twice with PBS. The coated cell culture plates were stored with excess PBS which was not removed until just before the feeding of the cells.
Preparation of the Cells:
The vertebral column was removed from decapitated rats and placed immediately into cold HBSS buffer (Hank's buffered saline solution, Gibco Invitrogen GmbH, Karlsruhe, Germany), i.e. buffer located in an ice bath, mixed with 1% by volume (percent by volume) of an AA solution (antibiotic/antimyotic solution, PAA, Pasching, Austria). The vertebral column was cut longitudinally and removed together with fasciae from the vertebral canal. Subsequently, the dorsal root ganglia (DRG) were removed and again stored in cold HBSS buffer mixed with 1% by volume of an AA solution. The DRG, from which all blood remnants and spinal nerves had been removed, were transferred in each case to 500 μL of cold type 2 collagenase (PAA, Pasching, Austria) and incubated for 35 minutes at 37° C. After the addition of 2.5% by volume of trypsin (PAA, Pasching, Austria), incubation was continued for 10 minutes at 37° C. After complete incubation, the enzyme solution was carefully pipetted off and 500 μL of complete medium were added to each of the remaining DRG. The DRG were in each case suspended several times, drawn through cannulae No. 1, No. 12 and No. 16 using a syringe and transferred to a 50 mL Falcon tube which was filled up to 15 mL with complete medium. […]

T2 sequence (O35433 whole entry): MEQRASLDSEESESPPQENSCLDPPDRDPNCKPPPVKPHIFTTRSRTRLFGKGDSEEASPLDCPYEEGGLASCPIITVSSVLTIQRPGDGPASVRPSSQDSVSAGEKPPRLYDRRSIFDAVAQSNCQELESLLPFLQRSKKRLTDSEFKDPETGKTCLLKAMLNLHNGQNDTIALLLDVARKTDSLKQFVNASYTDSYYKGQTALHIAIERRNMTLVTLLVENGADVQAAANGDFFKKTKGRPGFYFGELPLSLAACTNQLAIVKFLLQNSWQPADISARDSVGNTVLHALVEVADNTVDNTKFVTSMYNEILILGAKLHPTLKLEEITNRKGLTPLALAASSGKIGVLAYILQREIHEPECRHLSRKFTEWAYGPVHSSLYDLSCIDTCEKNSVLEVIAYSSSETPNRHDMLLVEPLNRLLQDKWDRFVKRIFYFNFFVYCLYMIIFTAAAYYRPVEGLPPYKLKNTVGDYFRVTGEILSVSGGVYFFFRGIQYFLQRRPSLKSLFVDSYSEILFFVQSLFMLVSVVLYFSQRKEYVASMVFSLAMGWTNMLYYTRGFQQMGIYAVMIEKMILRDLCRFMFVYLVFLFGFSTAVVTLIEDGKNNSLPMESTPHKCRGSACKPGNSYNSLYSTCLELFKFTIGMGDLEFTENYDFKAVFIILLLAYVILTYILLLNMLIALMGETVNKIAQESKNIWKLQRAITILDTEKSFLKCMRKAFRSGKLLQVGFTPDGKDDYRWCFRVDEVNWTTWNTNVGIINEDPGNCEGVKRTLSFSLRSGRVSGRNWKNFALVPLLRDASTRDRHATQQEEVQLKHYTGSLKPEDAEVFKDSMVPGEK
T1 sequence (Q8NER1 whole entry): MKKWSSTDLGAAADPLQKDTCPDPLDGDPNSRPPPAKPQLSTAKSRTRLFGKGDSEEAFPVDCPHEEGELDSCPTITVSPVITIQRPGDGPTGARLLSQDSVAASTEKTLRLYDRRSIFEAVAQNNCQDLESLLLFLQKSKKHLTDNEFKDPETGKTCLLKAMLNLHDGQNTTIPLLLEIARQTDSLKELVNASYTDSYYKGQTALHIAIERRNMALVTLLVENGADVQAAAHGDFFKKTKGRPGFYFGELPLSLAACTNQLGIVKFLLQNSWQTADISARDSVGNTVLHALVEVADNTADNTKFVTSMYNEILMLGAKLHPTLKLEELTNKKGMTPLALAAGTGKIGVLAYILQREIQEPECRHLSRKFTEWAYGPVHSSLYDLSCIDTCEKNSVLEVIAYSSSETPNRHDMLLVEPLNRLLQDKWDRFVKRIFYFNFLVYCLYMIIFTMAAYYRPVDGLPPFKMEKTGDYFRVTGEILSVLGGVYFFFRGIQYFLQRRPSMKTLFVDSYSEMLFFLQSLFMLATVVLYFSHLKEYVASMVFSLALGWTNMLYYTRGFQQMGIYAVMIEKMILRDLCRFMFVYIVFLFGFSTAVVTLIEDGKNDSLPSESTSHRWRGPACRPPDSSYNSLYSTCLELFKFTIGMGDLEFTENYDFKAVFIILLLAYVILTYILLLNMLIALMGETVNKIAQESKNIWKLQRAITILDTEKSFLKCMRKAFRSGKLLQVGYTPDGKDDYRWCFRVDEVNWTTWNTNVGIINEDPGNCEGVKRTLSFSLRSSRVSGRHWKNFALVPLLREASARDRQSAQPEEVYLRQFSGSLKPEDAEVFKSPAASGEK

| inhibition at 10 µM (vanilloid receptor (VR1)) | activation at 10 µM (vanilloid receptor (VR1)) | inhibition at 10 µM [1] | activation at 10 µM [1] | IC50 ([1]; capsaicin (CAP) stimulus, average) | Structure (SMILES) |
| --- | --- | --- | --- | --- | --- |
| -2.79% | -0.35% | 58.8% | -0.47% | – | Cc1ccc(C2=NOC3(CCN(C(=O)Nc4ccc(C(C)C)cc4)CC3)C2)cc1 [Compound 81, 3-p-tolyl-1-oxa-2,8-diazaspiro[4.5]dec-2-ene-8-carboxylic acid-(4-isopropylphenyl)amide] |
| -7.62% | -0.15% | 55.9% | -0.47% | – | O=C(Nc1cccc(C(F)(F)F)c1)N1CCC2(CC1)CC(c1ccccc1)=NO2 [Compound 90, 3-phenyl-1-oxa-2,8-diazaspiro[4.5]dec-2-ene-8-carboxylic acid-(3-trifluoromethylphenyl)amide] |
| 8.28% | -0.35% | 50.9% | -0.47% | – | O=C(Nc1ccccc1Oc1ccccc1)N1CCC2(CC1)CC(c1ccc(C(F)(F)F)cc1)=NO2 [Compound 103, 3-(4-trifluoromethylphenyl)-1-oxa-2,8-diazaspiro[4.5]dec-2-ene-8-carboxylic acid-(2-phenoxyphenyl)amide] |
| -13.1% | 0.07% | 49.2% | -0.47% | – | COc1cccc(C2=NOC3(CCN(C(=O)NCCc4ccccc4)CC3)C2)c1 [Compound 122, 3-(3-methoxyphenyl)-1-oxa-2,8-diazaspiro[4.5]dec-2-ene-8-carboxylic acid phenethylamide] |
| 9.67% | 9.37% | 99.2% | 1.4% | – | COc1cccc(C2=NOC3(CCN(C(=O)Nc4ccc(C(C)(C)C)cc4)CC3)C2)c1 [Compound 140, 3-(3-methoxyphenyl)-1-oxa-2,8-diazaspiro[4.5]dec-2-ene-8-carboxylic acid-(4-tert-butylphenyl)amide] |
| 20.4% | -0.3% | 98.5% | 0.42% | 78 nM | CC(C)(C)c1ccc(NC(=O)N2CCC3(CC2)CC(c2ccccc2)=NO3)cc1 [Compound 141, 3-phenyl-1-oxa-2,8-diazaspiro[4.5]dec-2-ene-8-carboxylic acid-(4-tert-butylphenyl)amide] |
| -18.8% | -0.07% | 63% | -0.2% | – | CC(C)(C)c1ccc(NC(=O)N2CCC3(CC2)CC(c2ccc(Cl)cc2)=NO3)cc1 [Compound 142, 3-(4-chlorophenyl)-1-oxa-2,8-diazaspiro[4.5]dec-2-ene-8-carboxylic acid-(4-tert-butylphenyl)amide] |
| -7.17% | 4.12% | 45.7% | -0.33% | – | CC(C)(C)c1ccc(NC(=O)N2CCC3(CC2)CC(c2ccc(C(C)(C)C)cc2)=NO3)cc1 [Compound 143, 3-(4-tert-butylphenyl)-1-oxa-2,8-diazaspiro[4.5]dec-2-ene-8-carboxylic acid-(4-tert-butylphenyl)amide] |
| -16.6% | -0.18% | 94.5% | -0.43% | – | Cc1ccc(C2=NOC3(CCN(C(=O)Nc4ccc(C(C)(C)C)cc4)CC3)C2)cc1 [Compound 144, 3-p-tolyl-1-oxa-2,8-diazaspiro[4.5]dec-2-ene-8-carboxylic acid-(4-tert-butylphenyl)amide] |
| 4.26% | 2.49% | 59.9% | -0.2% | – | CC(C)(C)c1ccc(NC(=O)N2CCC3(CC2)CC(c2ccc(C(F)(F)F)cc2)=NO3)cc1 [Compound 145, 3-(4-trifluoromethylphenyl)-1-oxa-2,8-diazaspiro[4.5]dec-2-ene-8-carboxylic acid-(4-tert-butylphenyl)amide] |
| 9.95% | 0.29% | 58% | -0.13% | – | COc1cccc(C2=NOC3(CCN(C(=O)Nc4ccc(C)cc4)CC3)C2)c1 [Compound 146, 3-(3-methoxyphenyl)-1-oxa-2,8-diazaspiro[4.5]dec-2-ene-8-carboxylic acid p-tolylamide] |
| -7.89% | 0.69% | 48.2% | 0.2% | – | CCc1ccccc1NC(=O)N1CCC2(CC1)CC(c1cccc(OC)c1)=NO2 [Compound 156, 3-(3-methoxyphenyl)-1-oxa-2,8-diazaspiro[4.5]dec-2-ene-8-carboxylic acid-(2-ethylphenyl)amide] |
| -3.15% | 0.12% | 84.3% | -0.43% | – | CCc1ccc(NC(=O)N2CCC3(CC2)CC(c2ccccc2)=NO3)cc1 [Compound 163, 3-phenyl-1-oxa-2,8-diazaspiro[4.5]dec-2-ene-8-carboxylic acid-(4-ethylphenyl)amide] |
| -2.13% | -0.04% | 72.9% | -0.43% | – | CCc1ccc(NC(=O)N2CCC3(CC2)CC(c2ccc(Cl)cc2)=NO3)cc1 [Compound 164, 3-(4-chlorophenyl)-1-oxa-2,8-diazaspiro[4.5]dec-2-ene-8-carboxylic acid-(4-ethylphenyl)amide] |
| 1.69% | 1.92% | 56.2% | -0.43% | – | CCc1ccc(NC(=O)N2CCC3(CC2)CC(c2ccc(C(C)(C)C)cc2)=NO3)cc1 [Compound 165, 3-(4-tert-butylphenyl)-1-oxa-2,8-diazaspiro[4.5]dec-2-ene-8-carboxylic acid-(4-ethylphenyl)amide] |

— patent US8772307B2, “Substituted spiro compounds and their use for producing pain-relief medicaments” (Gruenenthal GmbH, priority 2005, dated 2014)
